Where two headings read alike, the source gives them in different places.
Assays:
Factor XIa = Factor XIa (Homo sapiens, UniProt P03951); test: Factor XIa inhibition assay (FLINT) utilizing a fluorophore-quencher pair peptide substrate 5Fam-[…]-K5Tamra; assay type: biochemical; details: kinetic (KIN) reads, read-out: FXIa KIN Inh IC50
Procedure, shortened: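 Compounds were tested as 11-point 3-fold dilutions from 100 nM (2% DMSO). They were preincubated 30 min with FXIa in 50 mM Tris pH 7.5, 5 mM CaCl2, then 15 μM fluorophore-quencher peptide was added. Cleavage was followed at 485/520 nm over 30 min, and IC50 was derived by 4-parameter logistic fit.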

human plasma kallikrein = human plasma kallikrein (Homo sapiens, UniProt P03952); test: Kallikrein inhibition assay (FLINT) utilizing a quenched AMC peptide substrate Z-Gly-Pro-Arg-AMC; assay type: biochemical; details: kinetic (KIN) reads, read-out: Kallikrein KIN Inh IC50
Procedure, shortened: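 IC50 from a 4-parameter logistic fit of % inhibition from 11 concentrations (3-fold, top 1 μM, 2% DMSO). Compound pre-incubated 30 min with 2 nM enzyme in Tris pH 7.5, NaCl, CaCl2, BSA, CHAPS, then 50 μM AMC peptide substrate added. Fluorescence (340/440 nm) followed every 5 min for 30 min at room temperature.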

Sequence of Factor XIa (P03951 388-625 limits assumed): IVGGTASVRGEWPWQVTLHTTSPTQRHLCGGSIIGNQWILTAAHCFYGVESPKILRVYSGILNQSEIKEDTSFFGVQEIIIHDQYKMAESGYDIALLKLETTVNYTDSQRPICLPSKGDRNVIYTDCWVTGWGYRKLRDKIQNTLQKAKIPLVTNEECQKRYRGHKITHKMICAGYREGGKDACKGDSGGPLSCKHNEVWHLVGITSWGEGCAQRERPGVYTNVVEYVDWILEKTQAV
Sequence of Factor XIa (P03951 19-387 partner limits assumed): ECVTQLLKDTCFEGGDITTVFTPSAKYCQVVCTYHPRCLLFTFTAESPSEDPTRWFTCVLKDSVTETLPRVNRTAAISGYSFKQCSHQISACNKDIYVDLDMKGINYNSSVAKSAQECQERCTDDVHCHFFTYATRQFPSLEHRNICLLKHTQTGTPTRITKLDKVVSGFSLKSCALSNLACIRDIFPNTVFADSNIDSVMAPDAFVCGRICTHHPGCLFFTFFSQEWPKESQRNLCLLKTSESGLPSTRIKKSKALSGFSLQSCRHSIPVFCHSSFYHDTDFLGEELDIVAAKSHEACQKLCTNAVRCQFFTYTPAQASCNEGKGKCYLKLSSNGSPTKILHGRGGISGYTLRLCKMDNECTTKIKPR
Sequence of human plasma kallikrein (P03952 391-638 limits assumed): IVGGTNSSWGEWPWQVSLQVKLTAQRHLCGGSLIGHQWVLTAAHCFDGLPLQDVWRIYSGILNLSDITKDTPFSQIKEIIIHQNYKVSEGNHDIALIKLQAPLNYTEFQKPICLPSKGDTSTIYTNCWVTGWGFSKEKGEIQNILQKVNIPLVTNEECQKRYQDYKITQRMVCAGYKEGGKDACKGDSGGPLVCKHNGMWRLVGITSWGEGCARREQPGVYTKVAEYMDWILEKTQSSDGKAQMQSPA
Sequence of human plasma kallikrein (P03952 20-390 partner limits assumed): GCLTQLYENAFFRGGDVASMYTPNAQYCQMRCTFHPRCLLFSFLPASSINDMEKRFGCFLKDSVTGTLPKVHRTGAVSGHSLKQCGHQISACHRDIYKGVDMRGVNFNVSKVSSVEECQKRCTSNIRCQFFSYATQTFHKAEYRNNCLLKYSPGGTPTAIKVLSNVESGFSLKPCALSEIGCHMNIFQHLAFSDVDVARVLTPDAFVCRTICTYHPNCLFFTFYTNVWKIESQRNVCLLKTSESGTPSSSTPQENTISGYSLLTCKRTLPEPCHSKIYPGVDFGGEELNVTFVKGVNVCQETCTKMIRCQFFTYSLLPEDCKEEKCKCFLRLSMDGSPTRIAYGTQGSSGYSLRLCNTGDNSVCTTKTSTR

IC50 (Factor XIa; values in nM) | IC50 (human plasma kallikrein; values in nM) | IC50 (human plasma kallikrein; unit μM) | IC50 (Factor XIa; unit μM) | SMILES
8.3 nM | 15.6 nM | – | – | C[C@H]1C[C@@H](c2ncc(-c3cc4c(cn3)NC(=O)CC4)[nH]2)n2c1cc(-c1c(-n3cnnn3)ccc(Cl)c1F)cc2=O (single isomer, unassigned) [Example 92, 6-(2-((1S*,3S*)-7-(3-Chloro-2-fluoro-6-(1H-tetrazol-1-yl)phenyl)-1-methyl-5-oxo-1,2,3,5-tetrahydroindolizin-3-yl)-1H-imidazol-5-yl)-3,4-dihydro-1,7-naphthyridin-2(1H)-one]
1.2 nM | 12 nM | – | – | C[C@@H]1C[C@H](c2nc(-c3ncc(N)nc3Cl)c[nH]2)n2c1nc(-c1c(-n3cnnn3)ccc(Cl)c1F)cc2=O (single isomer, unassigned) [Example 94, (6*R,8R)-6-(4-(5-Amino-3-chloropyrazin-2-yl)-1H-imidazol-2-yl)-2-(3-chloro-2-fluoro-6-(1H-tetrazol-1-yl)phenyl)-8-methyl-7,8-dihydropyrrolo[1,2-a]pyrimidin-4(6H)-one]
~575 nM | – | 9100 nM | – | C[C@H]1C[C@@H](c2ncc(-c3ccc(N)nc3Cl)[nH]2)n2c1nc(-c1c(-n3cnnn3)ccc(Cl)c1F)cc2=O (single isomer, unassigned) [Example 140]
0.2 nM | 18.3 nM | – | – | C[C@H]1C[C@@H](c2ncc(-c3ccc(N)nc3Cl)[nH]2)n2c1nc(-c1c(-n3cnnn3)ccc(Cl)c1F)cc2=O (single isomer, unassigned) [Example 142]
286 nM | – | 6400 nM | – | C[C@H]1CC(c2nc(F)c(-c3ccc(N)nc3)[nH]2)n2c1cc(-c1c(-n3cnnn3)ccc(Cl)c1F)cc2=O (stereo in doubt) [Example 40, (1*S,3*S)-3-(5-(6-Aminopyridin-3-yl)-4-fluoro-1H-imidazol-2-yl)-7-(3-chloro-2-fluoro-6-(1H-tetrazol-1-yl)phenyl)-1-methyl-2,3-dihydroindolizin-5(1H)-one]
346 nM | – | 2200 nM | – | Cc1cc(-c2cnc([C@@H]3C[C@@H](C)c4cc(-c5c(-n6cnnn6)ccc(Cl)c5F)cc(=O)n43)[nH]2)ccn1 (stereo in doubt) [Example 41, (1*R,3*S)-7-(3-Chloro-2-fluoro-6-(1H-tetrazol-1-yl)phenyl)-1-methyl-3-(5-(2-methylpyridin-4-yl)-1H-imidazol-2-yl)-2,3-dihydroindolizin-5(1H)-one]
3.3 nM | 33 nM | – | – | Cc1cc(-c2cnc([C@H]3C[C@H](C)c4cc(-c5c(-n6cnnn6)ccc(Cl)c5F)cc(=O)n43)[nH]2)ccn1 (stereo in doubt) [Example 42, (1*S,3*R)-7-(3-Chloro-2-fluoro-6-(1H-tetrazol-1-yl)phenyl)-1-methyl-3-(5-(2-methylpyridin-4-yl)-1H-imidazol-2-yl)-2,3-dihydroindolizin-5(1H)-one]
12.4 nM | 108 nM | – | – | C[C@@H]1C[C@H](c2ncc(-c3ccnc(F)c3)[nH]2)n2c1cc(-c1c(-n3cnnn3)ccc(Cl)c1F)cc2=O (stereo in doubt) [Example 43, (1*R,3*R)-7-(3-Chloro-2-fluoro-6-(1H-tetrazol-1-yl)phenyl)-3-(5-(2-fluoropyridin-4-yl)-1H-imidazol-2-yl)-1-methyl-2,3-dihydroindolizin-5(1H)-one]
14.9 nM | 97.8 nM | – | – | C[C@H]1C[C@@H](c2ncc(-c3ccnc(F)c3)[nH]2)n2c1cc(-c1c(-n3cnnn3)ccc(Cl)c1F)cc2=O (stereo in doubt) [Example 44, (1*S,3*S)-7-(3-Chloro-2-fluoro-6-(1H-tetrazol-1-yl)phenyl)-3-(5-(2-fluoropyridin-4-yl)-1H-imidazol-2-yl)-1-methyl-2,3-dihydroindolizin-5(1H)-one]
431 nM | 488 nM | – | – | C[C@H]1C[C@@H](c2ncc(-c3ccc4nn(C)cc4c3)[nH]2)n2c1cc(-c1c(-n3cnnn3)ccc(Cl)c1F)cc2=O (stereo in doubt) [Example 46, (1*S,3*S)-7-(3-Chloro-2-fluoro-6-(1H-tetrazol-1-yl)phenyl)-1-methyl-3-(5-(2-methyl-2H-indazol-5-yl)-1H-imidazol-2-yl)-2,3-dihydroindolizin-5(1H)-one]
23.7 nM | 21.7 nM | – | – | C[C@@H]1C[C@H](c2ncc(-c3ccc4nn(C)cc4c3)[nH]2)n2c1cc(-c1c(-n3cnnn3)ccc(Cl)c1F)cc2=O (stereo in doubt) [Example 47, (1*R,3*R)-7-(3-Chloro-2-fluoro-6-(1H-tetrazol-1-yl)phenyl)-1-methyl-3-(5-(2-methyl-2H-indazol-5-yl)-1H-imidazol-2-yl)-2,3-dihydroindolizin-5(1H)-one]
– | – | > 10000 nM | 3000 nM | C[C@H]1C[C@@H](c2ncc(-c3ccc4nccn4c3)[nH]2)n2c1cc(-c1c(-n3cnnn3)ccc(Cl)c1F)cc2=O (stereo in doubt) [Example 48, (1S*,3S*)-7-(3-Chloro-2-fluoro-6-(1H-tetrazol-1-yl)phenyl)-3-(5-(imidazo[1,2-a]pyridin-6-yl)-1H-imidazol-2-yl)-1-methyl-2,3-dihydroindolizin-5(1H)-one]
24.2 nM | 44.3 nM | – | – | C[C@@H]1C[C@H](c2ncc(-c3ccc4nccn4c3)[nH]2)n2c1cc(-c1c(-n3cnnn3)ccc(Cl)c1F)cc2=O (stereo in doubt) [Example 49, (1R*,3R*)-7-(3-Chloro-2-fluoro-6-(1H-tetrazol-1-yl)phenyl)-3-(5-(imidazo[1,2-a]pyridin-6-yl)-1H-imidazol-2-yl)-1-methyl-2,3-dihydroindolizin-5(1H)-one]
– | – | > 10000 nM | 7900 nM | C[C@@H]1C[C@H](c2ncc(-c3ccn4nccc4c3)[nH]2)n2c1cc(-c1c(-n3cnnn3)ccc(Cl)c1F)cc2=O (stereo in doubt) [Example 52, (1*R,3*R)-7-(3-Chloro-2-fluoro-6-(1H-tetrazol-1-yl)phenyl)-1-methyl-3-(5-(pyrazolo[1,5-a]pyridin-5-yl)-1H-imidazol-2-yl)-2,3-dihydroindolizin-5(1H)-one]
43.7 nM | 54 nM | – | – | C[C@H]1C[C@@H](c2ncc(-c3ccn4nccc4c3)[nH]2)n2c1cc(-c1c(-n3cnnn3)ccc(Cl)c1F)cc2=O (stereo in doubt) [Example 53, (1*S,3*S)-7-(3-Chloro-2-fluoro-6-(1H-tetrazol-1-yl)phenyl)-1-methyl-3-(5-(pyrazolo[1,5-a]pyridin-5-yl)-1H-imidazol-2-yl)-2,3-dihydroindolizin-5(1H)-one]
430 nM | – | > 10000 nM | – | C[C@H]1C[C@@H](c2cnc(-c3ccc(N)nc3F)[nH]2)n2c1cc(-c1c(-n3cnnn3)ccc(Cl)c1F)cc2=O (stereo in doubt) [Example 54, (1 S*,3S*)-3-(2-(6-Amino-2-fluoropyridin-3-yl)-1H-imidazol-5-yl)-7-(3-chloro-2-fluoro-6-(1H-tetrazol-1-yl)phenyl)-1-methyl-2,3-dihydroindolizin-5(1H)-one]
1.1 nM | 42.5 nM | – | – | C[C@@H]1C[C@H](c2cnc(-c3ccc(N)nc3F)[nH]2)n2c1cc(-c1c(-n3cnnn3)ccc(Cl)c1F)cc2=O (stereo in doubt) [Example 55, (1R*,3R*)-3-(2-(6-Amino-2-fluoropyridin-3-yl)-1H-imidazol-5-yl)-7-(3-chloro-2-fluoro-6-(1H-tetrazol-1-yl)phenyl)-1-methyl-2,3-dihydroindolizin-5(1H)-one]
– | – | > 10000 nM | 1200 nM | C[C@@H]1C[C@H](c2ncc(-c3ccc(N)nc3F)[nH]2)n2c1cc(-c1c(-n3cnnn3)ccc(Cl)c1F)cc2=O (stereo in doubt) [Example 56, (1*R,3*R)-3-(5-(6-Amino-2-fluoropyridin-3-yl)-1H-imidazol-2-yl)-7-(3-chloro-2-fluoro-6-(1H-tetrazol-1-yl)phenyl)-1-methyl-2,3-dihydroindolizin-5(1H)-one]
47.8 nM | 185 nM | – | – | C[C@@H]1CC(c2ncc(-c3cnc(N)c(F)c3)[nH]2)n2c1cc(-c1c(-n3cnnn3)ccc(Cl)c1F)cc2=O (stereo in doubt) [Example 60, (1*R)-3-(5-(6-Amino-5-fluoropyridin-3-yl)-1H-imidazol-2-yl)-7-(3-chloro-2-fluoro-6-(1H-tetrazol-1-yl)phenyl)-1-methyl-2,3-dihydroindolizin-5(1H)-one]
– | – | > 10000 nM | > 10000 nM | C[C@H]1C[C@@H](c2ncc(-c3ccc(N)nc3F)[nH]2)n2c1cc(-c1c(-n3cnnn3)ccc(Cl)c1F)cc2=O (stereo in doubt) [Example 68, (1*S,3*S)-3-(5-(6-Amino-2-fluoropyridin-3-yl)-1H-imidazol-2-yl)-7-(3-chloro-2-fluoro-6-(1H-tetrazol-1-yl)phenyl)-1-methyl-2,3-dihydroindolizin-5(1H)-one]
0.8 nM | 12.1 nM | – | – | Nc1ccc(-c2[nH]c(C3CC4(CC4)c4nc(-c5c(-n6cnnn6)ccc(Cl)c5F)cc(=O)n43)nc2F)c(F)n1 (stereo in doubt) [Example 76, (S)-6′-(5-(6-amino-2-fluoropyridin-3-yl)-4-fluoro-1H-imidazol-2-yl)-2′-(3-chloro-2-fluoro-6-(1H-tetrazol-1-yl)phenyl)-6′,7′-dihydro-4′H-spiro[cyclopropane-1,8′-pyrrolo[1,2-a]pyrimidin]-4′-one]
– | – | > 10000 nM | 6400 nM | COc1cc(-c2cnc([C@@H]3C[C@H](C)c4nc(-c5c(-n6cnnn6)ccc(Cl)c5F)cc(=O)n43)[nH]2)ccn1 (stereo in doubt) [Example 97, (6*S,8*S)-2-(3-Chloro-2-fluoro-6-(1H-tetrazol-1-yl)phenyl)-6-(5-(2-methoxypyridin-4-yl)-1H-imidazol-2-yl)-8-methyl-7,8-dihydropyrrolo[1,2-a]pyrimidin-4(6H)-one]

Source: patent US20230097157A1, “Bicyclic Pyridin-2-one and pyrimidin-4-one Derivatives Useful As a Factor XIa Inhibitors” (Janssen Pharmaceutica NV, priority 2021, published 2023)
